Biological target: T1, recombinant human SAE enzyme (Homo sapiens, UniProt Q9UBT2)
T1 sequence (Q9UBT2 1-640): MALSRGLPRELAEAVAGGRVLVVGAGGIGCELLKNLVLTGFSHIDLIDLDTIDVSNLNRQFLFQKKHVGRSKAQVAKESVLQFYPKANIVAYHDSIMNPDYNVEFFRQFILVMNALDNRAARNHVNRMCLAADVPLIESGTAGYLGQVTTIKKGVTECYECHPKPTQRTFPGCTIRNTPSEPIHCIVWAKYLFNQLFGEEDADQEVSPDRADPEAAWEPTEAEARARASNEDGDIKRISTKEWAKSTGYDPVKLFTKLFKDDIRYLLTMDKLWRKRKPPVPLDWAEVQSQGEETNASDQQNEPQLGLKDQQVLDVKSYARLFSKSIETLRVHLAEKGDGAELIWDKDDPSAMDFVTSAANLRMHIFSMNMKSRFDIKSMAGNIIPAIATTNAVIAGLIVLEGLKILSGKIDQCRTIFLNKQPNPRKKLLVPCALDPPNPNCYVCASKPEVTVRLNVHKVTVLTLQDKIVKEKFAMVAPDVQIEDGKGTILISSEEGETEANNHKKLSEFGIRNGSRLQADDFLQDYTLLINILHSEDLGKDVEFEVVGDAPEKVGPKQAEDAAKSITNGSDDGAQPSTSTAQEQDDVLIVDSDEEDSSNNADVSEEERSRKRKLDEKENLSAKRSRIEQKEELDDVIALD
T1 sequence (Q9UBE0 1-346 partner): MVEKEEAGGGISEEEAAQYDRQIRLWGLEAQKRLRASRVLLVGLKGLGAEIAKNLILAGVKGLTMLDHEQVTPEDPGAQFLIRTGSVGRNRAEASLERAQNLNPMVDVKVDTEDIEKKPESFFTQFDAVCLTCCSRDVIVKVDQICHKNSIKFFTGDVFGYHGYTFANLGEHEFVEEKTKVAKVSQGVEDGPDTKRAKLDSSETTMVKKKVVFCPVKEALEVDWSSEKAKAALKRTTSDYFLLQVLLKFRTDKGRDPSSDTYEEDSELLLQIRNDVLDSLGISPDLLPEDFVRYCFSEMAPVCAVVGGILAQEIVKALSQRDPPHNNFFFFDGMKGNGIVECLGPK
Assay: SAE HTRF Enzyme Assay
Type: biochemical
Settings: for IC50: class symbols A-C; for inhibition at 0.111 µM: compound concentration 0.111 μM, read-out: Percent Inhibition
Outline: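 Recombinant human SAE (0.11 nM) transferred Sumo-Flag (0.125 μM) to Ubc9-GST (0.01 μM) with 0.5 μM ATP in HEPES pH 7.5, MgCl2, GSH, BSA; 105 min at 24° C. EDTA stop, Eu-cryptate anti-Flag and XL-APC anti-GST added, 2 h, then HTRF read. Values given as % inhibition at one concentration or IC50.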

In the case of NS(=O)(=O)OC[C@H]1C[C@@H](Nc2ncncc2C(=O)c2ccn(Cc3ccc(C(F)(F)F)s3)n2)C[C@@H]1O [Compound I-183, [(1R,2S,4R)-2-hydroxy-4-({5-[(1-{[5-(trifluoromethyl)-2-thienyl]methyl}-1H-pyrazol-3-yl)carbonyl]pyrimidin-4-yl}amino)cyclopentyl]methyl sulfamate], the IC50 is reported as less than 10 nM and the inhibition at 0.111 µM is reported as 96%.
NS(=O)(=O)OC[C@H]1C[C@@H](Nc2ncncc2C(=O)c2cc(Cl)n(Cc3cc(C(F)(F)F)on3)c2)[C@@H](F)[C@@H]1O [Compound I-148, [(1R,2R,3R,4R)-4-({5-[(5-chloro-1-{[5-(trifluoromethyl)isoxazol-3-yl]methyl}-1H-pyrrol-3-yl)carbonyl]pyrimidin-4-yl}amino)-3-fluoro-2-hydroxycyclopentyl]methyl sulfamate] showed an IC50 of 10 to 100 nM and an inhibition at 0.111 µM of 85%.
Compound CC(c1ccccc1)n1ccc(C(=O)c2cncnc2N[C@@H]2C[C@H](COS(N)(=O)=O)[C@@H](O)[C@H]2O)n1 (single isomer, unassigned) [Compound I-351, {(1R,2R,3S,4R)-2,3-dihydroxy-4-[(5 -{[1-((1S)-1-phenylethyl)-1H-pyrazol-3-yl]carbonyl}pyrimidin-4-yl)amino]cyclopentyl}methyl sulfamate or {(1R,2R,3S,4R)-2,3-dihydroxy-4-[(5-{[1-((1R)-1-phenylethyl)-1H-pyrazol-3-yl]carbonyl}pyrimidin-4-yl)amino]cyclopentyl}methyl sulfamate] has an IC50 of less than 10 nM and an inhibition at 0.111 µM of 97%.
For NS(=O)(=O)OC[C@H]1C[C@@H](Nc2ncncc2C(=O)c2ccn(Cc3cccc(I)c3)c2)C[C@@H]1O [Compound I-68, {(1R,2S,4R)-2-hydroxy-4-[(5-{[1-(3-iodobenzyl)-1H-pyrrol-3-yl]carbonyl}pyrimidin-4-yl)amino]cyclopentyl}methyl sulfamate], the IC50 was less than 10 nM and the inhibition at 0.111 µM was 99%.
NS(=O)(=O)OC[C@H]1C[C@@H](Nc2ncncc2C(=O)c2ccn(Cc3cc(C(F)(F)F)ccc3Cl)n2)[C@H](O)[C@@H]1O [Compound I-268, [(1R,2R,3S,4R)-4-{[5-({1-[2-chloro-5-(trifluoromethyl)benzyl]-1H-pyrazol-3-yl}carbonyl)pyrimidin-4-yl]amino}-2,3-dihydroxycyclopentyl]methyl sulfamate] showed an IC50 of less than 10 nM and an inhibition at 0.111 µM of 99%.
NS(=O)(=O)OC[C@H]1C[C@@H](Nc2ncncc2C(=O)c2ccn(Cc3ccc(C(F)(F)F)o3)c2)C[C@@H]1O [Compound I-274, [(1R,2S,4R)-2-hydroxy-4-({5-[(1-{[5-(trifluoromethyl)-2-furyl]methyl}-1H-pyrrol-3-yl)carbonyl]pyrimidin-4-yl}amino)cyclopentyl]methyl sulfamate] showed an IC50 of less than 10 nM and an inhibition at 0.111 µM of 97%.
In the case of NS(=O)(=O)OC[C@H]1C[C@@H](Nc2ncncc2C(=O)c2ccn(Cc3ccccc3Cl)n2)[C@H](O)[C@@H]1O [Compound I-193, ((1R,2R,3S,4R)-4-((5-(1-(2-Chlorobenzyl)-1H-pyrazole-3-carbonyl)pyrimidin-4-yl)amino)-2,3-dihydroxycyclopentyl)methyl sulfamate], the IC50 is reported as less than 10 nM and the inhibition at 0.111 µM is reported as 99%.
NS(=O)(=O)OC[C@H]1C[C@@H](Nc2ncncc2C(=O)c2ccn(Cc3cc(Br)ccn3)n2)[C@H](O)[C@@H]1O [Compound I-324, [(1R,2R,3S,4R)-4-{[5-({1-[(4-bromopyridin-2-yl)methyl]-1H-pyrazol-3-yl}carbonyl)pyrimidin-4-yl]amino}-2,3-dihydroxycyclopentyl]methyl sulfamate] was tested, and the IC50 was less than 10 nM and the inhibition at 0.111 µM was 100%.
NS(=O)(=O)OC[C@@H]1C[C@@H](Nc2ncncc2C(=O)c2ccn(Cc3ccccc3)n2)C[C@@H]1O [Compound I-342, [(1S,2S,4R)-4-({5-[(1-benzyl-1H-pyrazol-3-yl)carbonyl]pyrimidin-4-yl}amino)-2-hydroxycyclopentyl]methyl sulfamate] showed an IC50 of 10 to 100 nM and an inhibition at 0.111 µM of 79%.
Cc1cc(C(=O)c2cncnc2N[C@@H]2C[C@H](COS(N)(=O)=O)[C@@H](O)C2)nn1Cc1cccc(I)c1 [Compound I-347, {(1R,2S,4R)-2-hydroxy-4-[(5-{[1-(3-iodobenzyl)-5-methyl-1H-pyrazol-3-yl]carbonyl}pyrimidin-4-yl)amino]cyclopentyl}methyl sulfamate] was tested, and the IC50 was less than 10 nM and the inhibition at 0.111 µM was greater than 99%.
In the case of CC#CC(C)n1ccc(C(=O)c2cncnc2N[C@@H]2C[C@H](COS(N)(=O)=O)[C@@H](O)C2)n1 (single isomer, unassigned) [Compound I-362, {(1R,2S,4R)-2-hydroxy-4-[(5-{[(1S)-1-(pent-3-yn-2-yl)-1H-pyrazol-3-yl]carbonyl}pyrimidin-4-yl)amino]cyclopentyl}methyl sulfamate or {(1R,2S,4R)-2-hydroxy-4-[(5-{[(1R)-1-(pent-3-yn-2-yl)-1H-pyrazol-3-yl]carbonyl}pyrimidin-4-yl)amino]cyclopentyl}methyl sulfamate], the IC50 is reported as 10 to 100 nM and the inhibition at 0.111 µM is reported as 52%.
NS(=O)(=O)OC[C@H]1C[C@@H](Nc2ncncc2C(=O)c2ccn(Cc3cccc(I)c3)n2)[C@H](O)[C@@H]1O [Compound I-221, {(1R,2R,3S,4R)-2,3-dihydroxy-4-[(5-{[1-(3-iodobenzyl)-1H-pyrazol-3-yl]carbonyl}pyrimidin-4-yl)amino]cyclopentyl}methyl sulfamate] gave an IC50 of less than 10 nM and an inhibition at 0.111 µM of 100%.
NS(=O)(=O)OC[C@H]1C[C@@H](Nc2ccncc2C(=O)c2ccn(Cc3ccc(Cl)c(Cl)c3)c2)C[C@@H]1O [Compound I-233, {(1R,2S,4R)-4-[(3-{[1-(3,4-dichlorobenzyl)-1H-pyrrol-3-yl]carbonyl}pyridin-4-yl)amino]-2-hydroxycyclopentyl}methyl sulfamate] gave an IC50 of less than 10 nM and an inhibition at 0.111 µM of 98%.
Work on NS(=O)(=O)OC[C@H]1C[C@@H](Nc2ncncc2C(=O)c2ccn(-c3ccccc3)n2)C[C@@H]1O [Compound I-205, [(1R,2S,4R)-2-Hydroxy-4-({5-[(1-phenyl-1H-pyrazol-3-yl)carbonyl]pyrimidin-4-yl}amino)cyclopentyl]methyl sulfamate] yielded an IC50 of 10 to 100 nM and an inhibition at 0.111 µM of 60%.
NS(=O)(=O)OC[C@H]1C[C@@H](Nc2ncncc2C(=O)c2ccn(Cc3cccc(C(F)(F)F)n3)n2)C[C@@H]1O [Compound I-3, [(1R,2S,4R)-2-hydroxy-4-({5-[(1-{[6-(trifluoromethyl)pyridin-2-yl]methyl}-1H-pyrazol-3-yl)carbonyl]pyrimidin-4-yl}amino)cyclopentyl]methyl sulfamate] was tested, and the IC50 was less than 10 nM and the inhibition at 0.111 µM was 98%.
In the case of COC(C)(C)C#CCn1ccc(C(=O)c2cncnc2N[C@@H]2C[C@H](COS(N)(=O)=O)[C@@H](O)[C@@H]2F)c1 [Compound I-75, {(1R,2R,3R,4R)-3-fluoro-2-hydroxy-4-[(5-{[1-(4-methoxy-4-methylpent-2-yn-1-yl)-1H-pyrrol-3-yl]carbonyl}pyrimidin-4-yl)amino]cyclopentyl}methyl sulfamate], the IC50 is reported as 10 to 100 nM and the inhibition at 0.111 µM is reported as 68%.
NS(=O)(=O)OC[C@H]1C[C@@H](Nc2ncncc2C(=O)c2ccn(Cc3cc(Cl)ccc3Cl)n2)C[C@@H]1O [Compound I-289, {(1R,2S,4R)-4-[(5-{[1-(2,5-dichlorobenzyl)-1H-pyrazol-3-yl]carbonyl}pyrimidin-4-yl)amino]-2-hydroxycyclopentyl}methyl sulfamate] gave an IC50 of less than 10 nM and an inhibition at 0.111 µM of 98%.

— patent publication US9695154B2, “Heteroaryl inhibitors of sumo activating enzyme” (MILLENNIUM PHARMACEUTICALS, INC., priority 2013, dated 2017)
